Reference: patent US9801961B2, “2-phenylimidazo[1,2-a]pyrimidines as imaging agents” (Hoffmann-La Roche Inc., priority 2013, dated 2017)

Test system: native tau aggregates
Test: TAU radioligand in vitro displacement assay ([3H]T808 autoradiography on human AD brain sections)
Assay type: binding
Conditions: radioligand [3H]T808 10 nM, 50 mM Tris pH 7.4, room temperature, 30 min; for % displacement of [3H]T808 (10 nM) at 10 nM: compound 10 nM; for % displacement of [3H]T808 (10 nM) at 1 uM: compound 1 uM
Experimental: TAU Radioligand-In-Vitro Displacement Assay
This in vitro binding assay assesses the affinity of compounds for native tau aggregates. The compounds are co-incubated with the well-established tau specific radioligand [^3H]T808 and the compound's displacement potency of [^3H]T808 binding is determined by in vitro autoradiography using human Alzheimer's disease (AD) brain sections (FIG. 1).
AD human brains are purchased from Banner Sun Health Research Institute (Sun City, Ariz., USA). Pathological diagnosis of AD is made according to standard NIA-Reagan Institute criteria based on neuropathological data. The radioligand [^3H]T808 was synthesized in-house ([^3H]-2-[4-(2-Fluoro-ethyl)-piperidin-1-yl]-benzo[4,5]imidazo[1,2-a]pyrimidine, radiochemical purity 99.0%). As a reference cold T808 is used (2-[4-(2-Fluoro-ethyl)-piperidin-1-yl]-benzo[4,5]imidazo[1,2-a]pyrimidine). For the autoradiography FujiFilm Imaging Plates (BAS-IP TR 2025) are exposed to the sections and read with a FujiFilm IP reader (BAS-5000).
Ten μm thick human AD brain sections are generated with a cryostat (Leica CM3050) at −17° C. chamber temperature and −15° C. object temperature. Sections are transferred to Histobond+microscope slides (Marienfeld Laboratory Glasware). After drying for 3 hours at room temperature the sections are stored at −20° C. The sections are incubated with the radioligand (10 nM) and the respective cold compound (at various concentrations) in 50 mM Tris buffer, pH 7.4 at room temperature for 30 min. After washing 3×10 min at 4° C. in 50 mM Tris buffer, pH 7.4 and 3 quick dips in H2O dist. at 4° C. the sections are dried at 4° C. for 3 h. The sections are placed in a FujiFilm Cassette (BAS 2025), exposed with an Imaging Plate for five days and afterwards scanned with a resolution of […].
The signal intensity (Dens—PSL/mm2) in the region of interest (ROI) of the autoradiogram is quantified with the software MCID analysis (version 7.0, Imaging Research Inc.). The specific binding (SB) of [^3H]T808 binding in absence or in presence of a compound is calculated by subtracting the non-specific binding signal in the white matter, thus yielding SB[3H]T808 only and SBcompund. The % displacement by the various compounds is calculated as following: % displacement=100−(SBcompund/SB[3H]T808 only)*100.
In each experiment cold T808 is used as a positive internal control. Co-incubation of equimolar amounts of hot and cold T808 is expected to reduce specific binding by approximately 50%.

SMILES	% displacement of [3H]T808 (10 nM) at 10 nM [%]	% displacement of [3H]T808 (10 nM) at 1 uM [%]
COc1ccc(-c2cn3ccc(N4CC[C@H](F)C4)nc3n2)cc1 [Example 34, 7-[(3 S)-3-Fluoropyrrolidin-1-yl]-2-(4-methoxyphenyl)imidazo[1,2-a]pyrimidine]	15	–
CNc1ccn2cc(-c3cccc(C)c3)nc2n1 [Example 62, N-Methyl-2-(3-methylphenyl)imidazo[1,2-a]pyrimidin-7-amine]	48	–
CNc1ccn2cc(-c3ccc(N(C)C)cc3)nc2n1 [Example 90, 2-[4-(Dimethylamino)phenyl]-N-methylimidazo[1,2-a]pyrimidin-7-amine]	38	–
FC1CCN(c2ccn3cc(-c4cccc(OC(F)(F)F)c4)nc3n2)CC1 [Example 15, 7-(4-Fluoropiperidin-1-yl)-2-[3-(trifluoromethoxy)phenyl]imidazo[1,2-a]pyrimidine]	14	–
COc1cc(-c2cn3ccc(N4CCC4)nc3n2)ccc1C [Example 127, 7-(Azetidin-1-yl)-2-(3-methoxy-4-methylphenyl)imidazo[1,2-a]pyrimidine]	11	–
Cc1cccc(-c2cn3ccc(N4CCCC4)nc3n2)c1 [Example 48, 2-(3-Methylphenyl)-7-pyrrolidin-1-ylimidazo[1,2-a]pyrimidine]	23	–
CNc1ccn2cc(-c3ccc(OCCCF)cc3)nc2n1 [Example 124, 2-(4-(3-Fluoropropoxy)phenyl)-N-methylimidazo[1,2-a]pyrimidin-7-amine]	40	–
CNc1ccn2cc(-c3ccc(O)cc3)nc2n1 [Example 122, 4-(7-(Methylamino)imidazo[1,2-a]pyrimidin-2-yl)phenol]	32	–
CNc1ccn2cc(-c3ccc(C(=O)OC)cc3)nc2n1 [Example 136, Methyl 4-[7-(methylamino)imidazo[1,2-a]pyrimidin-2-yl]benzoate]	27	–
CNc1ccn2cc(-c3ccc(C)cc3)nc2n1 [Example 82, N-Methyl-2-(4-methylphenyl)imidazo[1,2-a]pyrimidin-7-amine]	38	–
FCCCOc1ccc(-c2cn3ccc(N4CCC4)nc3n2)cc1 [Example 112, 7-(Azetidin-1-yl)-2-(4-(3-fluoropropoxy)phenyl)imidazo[1,2-a]pyrimidine]	15	–
FCCC1CCN(c2ccn3cc(-c4ccc(N5CCOCC5)cc4)nc3n2)CC1 [Example 61, 4-[4-[7-[4-(2-Fluoroethyl)piperidin-1-yl]imidazo[1,2-a]pyrimidin-2-yl]phenyl]morpholine]	10	–
FCCC1CCN(c2ccn3cc(-c4ccc5c(c4)OCO5)nc3n2)CC1 [Example 57, 2-(1,3-Benzodioxol-5-yl)-7-[4-(2-fluoroethyl)piperidin-1-yl]imidazo[1,2-a]pyrimidine]	9	–
Cc1ccc(-c2cn3ccc(N4CCCC4)nc3n2)cc1 [Example 44, 2-(4-Methylphenyl)-7-pyrrolidin-1-ylimidazo[1,2-a]pyrimidine]	28	–
FC1CCN(c2ccn3cc(-c4ccc5c(c4)OCO5)nc3n2)CC1 [Example 7, 2-(1,3-Benzodioxol-5-yl)-7-(4-fluoropiperidin-1-yl)imidazo[1,2-a]pyrimidine]	21	75
COc1cccc(-c2cn3ccc(N4CCC4)nc3n2)c1 [Example 113, 7-(Azetidin-1-yl)-2-(3-methoxyphenyl)imidazo[1,2-a]pyrimidine]	36	–
CN(C)c1ccn2cc(-c3ccc(N4CCOCC4)cc3)nc2n1 [Example 45, N,N-Dimethyl-2-(4-morpholin-4-ylphenyl)imidazo[1,2-a]pyrimidin-7-amine]	29	–
CN(C)c1ccc(-c2cn3ccc(N4CCC(F)CC4)nc3n2)cc1 [Example 91, 4-[7-(4-Fluoropiperidin-1-yl)imidazo[1,2-a]pyrimidin-2-yl]-N,N-dimethylaniline]	15	–
COc1cccc(-c2cn3ccc(N4CCN(CCF)CC4)nc3n2)c1.Cl [Example 20, 7-[4-(2-Fluoroethyl)piperazin-1-yl]-2-(3-methoxyphenyl)imidazo[1,2-a]pyrimidine hydrochloride]	–	51

SMILES	% displacement of [3H]T808 (10 nM) at 10 nM [%]	% displacement of [3H]T808 (10 nM) at 1 uM [%]
FCCOc1ccc(-c2cn3ccc(NC4CC4)nc3n2)cc1 [Example 138, N-Cyclopropyl-2-(4-(2-fluoroethoxy)phenyl)imidazo[1,2-a]pyrimidin-7-amine]	20	–
Fc1ccc(-c2cn3ccc(N4CCC4)nc3n2)cc1 [Example 119, 7-(Azetidin-1-yl)-2-(4-fluorophenyl)imidazo[1,2-a]pyrimidine]	22	–
COc1cccc(-c2cn3ccc(N4CCC(CCF)CC4)nc3n2)c1 [Example 55, 7-[4-(2-Fluoroethyl)piperidin-1-yl]-2-(3-methoxyphenyl)imidazo[1,2-a]pyrimidine]	10	–
COc1cccc(-c2cn3ccc(N(C)C)nc3n2)c1 [Example 35, 2-(3-Methoxyphenyl)-N,N-dimethylimidazo[1,2-a]pyrimidin-7-amine]	34	–
Cc1cccc(-c2cn3ccc(N4CCC(CCF)CC4)nc3n2)c1 [Example 59, 7-[4-(2-Fluoroethyl)piperidin-1-yl]-2-(3-methylphenyl)imidazo[1,2-a]pyrimidine]	10	–
COc1ccc(-c2cn3ccc(N4CC5(CCC5)C4)nc3n2)cc1 [Example 65, 7-(2-Azaspiro[3.3]heptan-2-yl)-2-(4-methoxyphenyl)imidazo[1,2-a]pyrimidine]	11	–
FC1CCN(c2ccn3cc(-c4cnccn4)nc3n2)CC1 [Example 106, 7-(4-Fluoropiperidin-1-yl)-2-(pyrazin-2-yl)imidazo[1,2-a]pyrimidine]	20	–
CNc1ccn2cc(-c3cccc(Br)c3)nc2n1 [Example 99, 2-(3-Bromophenyl)-N-methylimidazo[1,2-a]pyrimidin-7-amine]	27	–
CO[C@H]1CCN(c2ccn3cc(-c4ccccc4)nc3n2)C1 [Example 32, 7-[(3S)-3-Methoxypyrrolidin-1-yl]-2-phenylimidazo[1,2-a]pyrimidine]	13	–
FC1CN(c2ccn3cc(-c4ccccc4)nc3n2)C1 [Example 71, 7-(3-Fluoroazetidin-1-yl)-2-phenylimidazo[1,2-a]pyrimidine]	18	–
Cc1ccc(-c2cn3ccc(N(C)CCF)nc3n2)cc1 [Example 86, N-(2-Fluoroethyl)-N-methyl-2-(4-methylphenyl)imidazo[1,2-a]pyrimidin-7-amine]	16	–
FCOc1ccc(-c2cn3ccc(N4CCCC4)nc3n2)cc1 [Example 30, 2-[4-(Fluoromethoxy)phenyl]-7-pyrrolidin-1-ylimidazo[1,2-a]pyrimidine]	9	–
Fc1cccc(-c2cn3ccc(N4CCC4)nc3n2)c1 [Example 120, 7-(Azetidin-1-yl)-2-(3-fluorophenyl)imidazo[1,2-a]pyrimidine]	22	–
FC1CCN(c2ccn3cc(-c4ccccc4)nc3n2)CC1 [Example 2, 7-(4-Fluoropiperidin-1-yl)-2-phenylimidazo[1,2-a]pyrimidine]	19	72
FCCCOc1ccc(-c2cn3ccc(NC4CC4)nc3n2)cc1 [Example 139, N-Cyclopropyl-2-(4-(3-fluoropropoxy)phenyl)imidazo[1,2-a]pyrimidin-7-amine]	22	–
COc1cccc(-c2cn3ccc(N4CCC(F)CC4)nc3n2)c1 [Example 5, 7-(4-Fluoropiperidin-1-yl)-2-(3-methoxyphenyl)imidazo[1,2-a]pyrimidine]	33	74
CN(C)c1ccc(-c2cn3ccc(N(C)C)nc3n2)cc1 [Example 46, 2-[4-(Dimethylamino)phenyl]-N,N-dimethylimidazo[1,2-a]pyrimidin-7-amine]	43	–
CNc1ccn2cc(-c3cccc(OC)c3)nc2n1 [Example 117, 2-(3-Methoxyphenyl)-N-methylimidazo[1,2-a]pyrimidin-7-amine]	40	–
